{"source": "the SangsterLogP compilation"}
{"assay": "method code SF-AS, from DOI: 10.1002/qsar.19890080102", "details": "pH 1.5"}
{"smiles": "NS(=O)(=O)c1cccc(S(N)(=O)=O)c1", "logD": -0.5}
{"smiles": "CS(=O)(=O)Nc1ccc(S(N)(=O)=O)cc1", "logD": -0.4}
{"smiles": "NS(=O)(=O)c1ccc(Br)cc1", "logD": 1.34}
{"smiles": "CCCCOc1ccc(S(N)(=O)=O)cc1", "logD": 2.05}
{"smiles": "CC(C)c1ccc(S(N)(=O)=O)cc1", "logD": 1.71}
{"smiles": "CCCCOc1cccc(S(N)(=O)=O)c1", "logD": 2.06}
{"smiles": "NS(=O)(=O)c1ccc(-c2ccccc2)cc1", "logD": 2.24}
{"smiles": "NS(=O)(=O)c1cccc(I)c1", "logD": 1.58}
{"smiles": "NS(=O)(=O)c1cccc(Br)c1", "logD": 1.35}
{"smiles": "CC(C)c1cccc(S(N)(=O)=O)c1", "logD": 1.66}
{"smiles": "NS(=O)(=O)c1cccc(Cl)c1", "logD": 1.16}
{"smiles": "NS(=O)(=O)c1ccc(I)cc1", "logD": 1.55}
{"assay": "method code SF-AS, from DOI: 10.1002/qsar.19890080102", "details": "pH 5.5"}
{"smiles": "Nc1cccc(S(N)(=O)=O)c1", "logD": -0.32}
